Data published in article PMC11211886 (Frontiers in Pharmacology, 2024).

How the values were obtained:
MATE1 = target: T1, MATE1 (Homo sapiens, UniProt Q96FL8); assay: MATE1 inhibition, tetraethylammonium uptake in transfected HEK293 cells
T1 sequence (Q96FL8 1-570): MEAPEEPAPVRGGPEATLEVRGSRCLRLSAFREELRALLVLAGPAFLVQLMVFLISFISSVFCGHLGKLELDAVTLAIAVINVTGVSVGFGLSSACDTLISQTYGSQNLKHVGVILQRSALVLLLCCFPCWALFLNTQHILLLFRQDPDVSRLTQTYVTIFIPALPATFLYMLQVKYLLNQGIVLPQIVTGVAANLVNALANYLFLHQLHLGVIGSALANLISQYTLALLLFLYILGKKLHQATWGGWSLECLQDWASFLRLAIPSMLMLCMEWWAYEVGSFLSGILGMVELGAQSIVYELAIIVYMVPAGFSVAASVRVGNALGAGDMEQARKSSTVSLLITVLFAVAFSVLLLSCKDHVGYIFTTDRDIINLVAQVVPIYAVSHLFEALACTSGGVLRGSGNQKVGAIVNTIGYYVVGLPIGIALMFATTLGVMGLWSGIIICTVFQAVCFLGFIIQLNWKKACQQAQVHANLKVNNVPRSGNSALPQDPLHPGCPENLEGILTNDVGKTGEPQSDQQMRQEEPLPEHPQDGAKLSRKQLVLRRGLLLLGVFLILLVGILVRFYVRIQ
Experimental: (§1) The pre-incubation solutions were removed, and incubation solutions containing the inhibitors and probe substrates (or transport buffer containing an equal volume of vehicle control and probe substrates) were added and incubated at 37°C for 2 min (5 min for OATP1B3). The probe substrate for OAT1 was 4-aminohippuric acid (10 μM), for OAT3 was estrone 3-sulfate (10 μM), for OCT2 was metformin (100 μM), for OATP1B1 was β-estradiol 17-(β-D-glucuronide) (5 μM), for OATP1B3 was β-estradiol 17-(β-D-glucuronide) (10 μM), and for MATE1 and MATE2-K was tetraethylammonium (10 μM). After incubation, cells were washed three times with ice-cold transport buffer (25 mM HEPES, pH 7.4, pH 8.0 for overexpressing MATE1 and MATE2-K HEK293 cells) and lysed in distilled water. The concentrations of probe substrates were determined by LC-MS/MS, and a BCA Kit (Solarbio ®Life Sciences, Beijing, China) was used to determine the protein content in the cell lysate.
(§2) where C is the concentration of the drug in the cell lysate (nM), P is the protein concentration of the cell lysate (mg/mL), and T is the incubation time (minute). Uptake ratetest compound is the uptake rate of the substrate in the presence of the test compound. Uptake ratevehicle control is the uptake rate of the substrate in the presence of the vehicle control. Uptake ratepassive is the uptake rate of the substrate in the presence of the positive inhibitor at the top test concentration.

OCT2 = target: T2, OCT2 (Homo sapiens, UniProt O15244); assay: OCT2 inhibition, metformin uptake in transfected HEK293 cells
T2 sequence (O15244 1-555): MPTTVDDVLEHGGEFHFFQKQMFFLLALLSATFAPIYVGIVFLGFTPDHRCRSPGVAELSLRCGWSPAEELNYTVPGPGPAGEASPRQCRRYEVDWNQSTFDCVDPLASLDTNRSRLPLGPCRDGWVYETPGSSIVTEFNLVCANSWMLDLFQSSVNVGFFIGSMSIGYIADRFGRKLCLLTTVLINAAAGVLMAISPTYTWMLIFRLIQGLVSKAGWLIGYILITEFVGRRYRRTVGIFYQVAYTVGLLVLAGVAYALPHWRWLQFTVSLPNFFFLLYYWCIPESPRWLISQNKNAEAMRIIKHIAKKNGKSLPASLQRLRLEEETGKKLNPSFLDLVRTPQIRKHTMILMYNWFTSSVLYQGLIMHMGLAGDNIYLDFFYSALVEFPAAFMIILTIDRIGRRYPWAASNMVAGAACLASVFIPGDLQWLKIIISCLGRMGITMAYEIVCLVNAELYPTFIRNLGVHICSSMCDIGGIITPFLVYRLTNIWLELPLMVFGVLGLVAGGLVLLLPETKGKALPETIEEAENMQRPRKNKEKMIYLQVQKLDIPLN
Experimental: as §1, §2

## C[C@H](Nc1ncnc(N)c1C#N)c1cc2ncc(Cl)n2nc1-c1ccccc1 [Amdizalisib]
MATE1
  IC50: 16.2 µM
  calculated R value (MATE-1): < 1.1
MATE1; MATE1, compound 0.3 μM
  Percentage transported: 98.0%
  Uptake rate: 244±23.4 pmol/mg protein/min
MATE1; MATE1, compound 1 μM
  Percentage transported: 86.1%
  Uptake rate: 216±1.37 pmol/mg protein/min
MATE1; MATE1, compound 3 μM
  Percentage transported: 73.2%
  Uptake rate: 186±12.4 pmol/mg protein/min
MATE1; MATE1, compound 10 μM
  Percentage transported: 49.2%
  Uptake rate: 129±1.08 pmol/mg protein/min
MATE1; MATE1, compound 30 μM
  Percentage transported: 47.8%
  Uptake rate: 126±22.8 pmol/mg protein/min
MATE1; MATE1, compound 100 μM
  Percentage transported: 23.6%
  Uptake rate: 68.4±2.28 pmol/mg protein/min
MATE1; human, pH 8
  inhibition at 2 min, 0.3 µM: 2.01%
  inhibition at 2 min, 1 µM: 13.9%
  inhibition at 2 min, 3 µM: 26.8%
  inhibition at 2 min, 10 µM: 50.8%
  inhibition at 2 min, 30 µM: 52.2%
  inhibition at 2 min, 100 µM: 76.4%
OCT2
  IC50: > 100 µM
  calculated R value (OCT2): < 1.1
OCT2; OCT2, compound 0.3 μM
  Percentage transported: 98.7%
  Uptake rate: 772±136 pmol/mg protein/min
OCT2; OCT2, compound 1 μM
  Percentage transported: 93.3%
  Uptake rate: 733±47.7 pmol/mg protein/min
OCT2; OCT2, compound 3 μM
  Percentage transported: 95.1%
  Uptake rate: 746±13.4 pmol/mg protein/min
OCT2; OCT2, compound 10 μM
  Percentage transported: 92.7%
  Uptake rate: 728±32.8 pmol/mg protein/min
OCT2; OCT2, compound 30 μM
  Percentage transported: 108%
  Uptake rate: 839±49.9 pmol/mg protein/min
OCT2; OCT2, compound 100 μM
  Percentage transported: 50.8%
  Uptake rate: 429±46.2 pmol/mg protein/min
OCT2; human, pH 7.4
  inhibition at 2 min, 0.3 µM: 1.28%
  inhibition at 2 min, 1 µM: 6.72%
  inhibition at 2 min, 3 µM: 4.92%
  inhibition at 2 min, 10 µM: 7.34%
  inhibition at 2 min, 30 µM: -8.07%
  inhibition at 2 min, 100 µM: 49.2%
